For data set [1] the following is noted: as reported in Japanese Patent Public Disclosure No. 25323/84; cited from earlier work.
The conditions of data set [2]: rat, in vivo, po.
The subject of data set [3] is thoracic aorta tissue sections. Description: Superoxide anion (O2−) production level in thoracic aorta tissue sections, lucigenin-enhanced chemiluminescence. Format: in vivo, Sprague-Dawley rats. As to conditions: for O2− production level, Average: 10 mg BH4 dihydrochloride/kg/day oral, 8 weeks. As to the method:
(§1) Male Sprague-Dawley rats (150 g, supplied from Charles River) were used to prepare a model group with insulin resistance induced by fructose feed loading (hereinafter referred to as “FR group”) according to the procedure described by Hwang et al. (Hwang, I-H. et al., Hypertension 10:512, 1987). A control group grown with a starch feed (hereinafter referred to as “CTR group”) was also prepared (FR group: n=16; CTR group: n=16). FR group received a feed containing 67% (hereinafter meaning % by weight) carbohydrate (containing 98% fructose available from Oriental Yeast Co., Ltd.), 13% fat and 20% protein, while CTR group received a feed containing 58% carbohydrate, 12% fat and […]. […] After 8 weeks, the thoracic aorta was collected. For each group, endothelium-separated sections (EC (−)) and non-separated sections (EC (+)) were prepared and examined for superoxide anion (O2^−) production level, endothelial NOS (eNOS) activity and endothelium-dependent vasorelaxation.
(§2) Group-to-group statistic analyses were made by one-way ANOVA, with the significance level being p<0.05. Multiple comparison was made by Bonferronl/Dunn, with the significance level being p<0.05.
Measurement of O2^− production level was made by the lucigenin-enhanced chemiluminescence method (Ohara et al., J. Clin. Invest. 91: 2546, 1993).

A further data set addresses T1, endothelial NOS (eNOS) (Rattus norvegicus, UniProt Q62600).
T1 construct: After 8 weeks, the thoracic aorta was collected; from tissue; host or cells: thoracic aorta sections with endothelium (EC (+)) of Sprague-Dawley rats
Description: Endothelial NOS activity in thoracic aorta sections. It counts as in vivo, Sprague-Dawley rats. As to conditions: for eNOS activity, Average: 10 mg/kg/day oral, 8 weeks. As to the method: as §1, §2
Measurement of eNOS activity was made according to Rees, D. et al., Hypertension 28: 367, 1996.

For data set [4], the system named is thoracic aorta sections. Description: Endothelium-dependent vasorelaxation induced by acetylcholine, isometric tensiometry. Format: in vivo, Sprague-Dawley rats. The following applies: for Endothelium-dependent vasorelaxation induced by acetylcholine, Average / Endothelium-dependent vasorelaxation induced by acetylcholine, Average (TABLE 3): 10 mg/kg/day oral, 8 weeks; for Endothelium-dependent vasorelaxation induced by acetylcholine, Average: acetylcholine 10^−5 M, vs 10^−4 M papaverine; for Endothelium-dependent vasorelaxation induced by acetylcholine, Average (TABLE 3): repeat print of Table 3. As for the experimental part: as §1, §2
Measurement of endothelium-dependent vasorelaxation was made by the isometric tensiometry (Toda, N. et al., Stroke 24: 1584, 1993) using ink-writing oscillographs (Nippon Kohden Corporation) and a force-displacement transducer (Nippon Kohden Corporation). Data were shown as % maximum relaxation vs. the maximum relaxation induced by 10^−4 M papaverine after aortic sections were partially precontracted with 1-3×10^−7 M 1-phenylephrine. Endothelium-dependent vasorelaxation induced by acetylcholine (10^−5M) and calcium ionophore (A23187, Sigma) (3×10^−7 M) in EC (+) of each of the 4 groups are shown in Tables 3 and 4, respectively.

The test system of data set [5] is thoracic aorta sections. Description: Endothelium-dependent vasorelaxation induced by calcium ionophore (A23187), isometric tensiometry. It counts as in vivo, Sprague-Dawley rats. The following applies: FR group, EC (+), A23187 3×10^−7 M. As to the method: as §1
Group-to-group statistic analyses were made by one-way ANOVA, with the significance level being p<0.05. Multiple comparison was made by Bonferronl/Dunn, with the significance level being p<0.05. […]

[6] abbreviates: CTR + BH4 group (starch feed), EC (+).
The mark [7] stands for this setting: FR + BH4 group (fructose-fed, insulin resistant), EC (+).

Structures can show the parent of a compound that is named as a salt.

For the compound `C[C@H](O)[C@H](O)C1CNc2nc(N)[nH]c(=O)c2N1` (stereo partly drawn) [(6R,S)-5,6,7,8-tetrahydrobiopterin], the “toxicity (in words)” value in data set [1] is on record as “only slightly toxic”.
For `CC(O)C(O)C1CNc2nc(N)[nH]c(=O)c2N1` [BH4 dihydrochloride, (6R)-L-erythro-5,6,7,8-tetrahydrobiopterin], the acute toxicity in data set [2] was ≥ 2 g/kg (body weight).
Consider `CC(O)C(O)C1CNc2nc(N)[nH]c(=O)c2N1` [BH4, (6R)-L-erythro-5,6,7,8-tetrahydrobiopterin], for which the “O2− production level, Average” value is listed as 189.3 100 cpm/mg dry weight in data set [3] (setting [6]) and 118.0 100 cpm/mg dry weight in data set [3] (setting [7]). In addition, the “change of O2− production level by BH4 administration (in words)” value is “any significant change was not observed” in data set [3] (CTR group) and “significantly (p<0.001) decreased” in data set [3] (FR group, EC (+)). Further, the “O2− production level, difference among the 4 groups (in words)” value in data set [3] (EC (−) endothelium-separated sections) is given as “No significant difference”. The results for the “eNOS activity, Average” value on endothelial NOS (eNOS) (setting [6]) and at endothelial NOS (eNOS) (setting [7]) were 57.0 pmol/min/mg protein and 60.2 pmol/min/mg protein, respectively. Moreover, the “change of eNOS activity by BH4 administration (in words)” value at endothelial NOS (eNOS) (CTR group) is listed as “any significant change was not observed”; on endothelial NOS (eNOS) (FR group, EC (+)) it was “significantly (p<0.001) improved”. The “Endothelium-dependent vasorelaxation induced by acetylcholine, Average” value stood at 92.9 % maximum relaxation with thoracic aorta sections [4] (CTR + BH4 group, EC (+)) and 82.6 % maximum relaxation in the data set on thoracic aorta sections [4] (FR + BH4 group, EC (+)). In addition, the “Endothelium-dependent vasorelaxation induced by acetylcholine, Average (TABLE 3)” value with thoracic aorta sections [4] (CTR + BH4 group, EC (+)) was 92.9 % maximum relaxation; with thoracic aorta sections [4] (FR + BH4 group, EC (+)), 82.6 % maximum relaxation. Further, the “change of endothelium-dependent vasorelaxation by BH4 administration (in words)” value in the data set on thoracic aorta sections [4] (CTR group) was “any significant change was not observed”. In the data set on thoracic aorta sections [4] (FR group, EC (+)), the “change of acetylcholine-induced endothelium-dependent vasorelaxation by BH4 administration (in words)” value was “significantly (p<0.001) recovered”. The “change of calcium ionophore-induced endothelium-dependent vasorelaxation by BH4 administration (in words)” value in the data set on thoracic aorta sections [5] is given as “significantly (p<0.001) recovered”.

(Values after patent US6410535B1, “Prophylactic or therapeutic agents for diseases having vascular dysfunction associated with insulin resistance” (Suntory Limited, priority 1998, dated 2002).)
